Reference: ChEMBL document CHEMBL1124620, “New 1,4-dihydropyridine derivatives combining calcium antagonism and alpha-adrenolytic properties” (J Med Chem, 1989)

Tests used:
[1] = target: T1, Adrenergic receptor alpha-1 (Rattus norvegicus, UniProt P15823+P23944+P43140); experiment: Alpha-1-adrenolytic activity was assessed from the ability to inhibit [3H]prazosin binding to rat cerebral cortex preparation; format: tissue-based
T1 sequence (P15823 whole entry): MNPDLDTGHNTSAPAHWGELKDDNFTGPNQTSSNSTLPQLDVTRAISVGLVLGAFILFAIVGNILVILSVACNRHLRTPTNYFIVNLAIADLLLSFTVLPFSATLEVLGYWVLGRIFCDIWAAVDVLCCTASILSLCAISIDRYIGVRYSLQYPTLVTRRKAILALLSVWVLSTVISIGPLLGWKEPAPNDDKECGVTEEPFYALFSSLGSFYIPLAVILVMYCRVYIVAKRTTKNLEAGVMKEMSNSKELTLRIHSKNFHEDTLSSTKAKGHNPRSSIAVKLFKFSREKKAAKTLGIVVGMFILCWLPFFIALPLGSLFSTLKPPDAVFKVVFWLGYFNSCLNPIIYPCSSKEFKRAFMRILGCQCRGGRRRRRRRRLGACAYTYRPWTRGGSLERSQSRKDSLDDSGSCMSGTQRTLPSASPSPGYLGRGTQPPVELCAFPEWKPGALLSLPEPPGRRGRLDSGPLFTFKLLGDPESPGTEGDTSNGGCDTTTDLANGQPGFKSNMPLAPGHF
T1 sequence (P23944 whole entry): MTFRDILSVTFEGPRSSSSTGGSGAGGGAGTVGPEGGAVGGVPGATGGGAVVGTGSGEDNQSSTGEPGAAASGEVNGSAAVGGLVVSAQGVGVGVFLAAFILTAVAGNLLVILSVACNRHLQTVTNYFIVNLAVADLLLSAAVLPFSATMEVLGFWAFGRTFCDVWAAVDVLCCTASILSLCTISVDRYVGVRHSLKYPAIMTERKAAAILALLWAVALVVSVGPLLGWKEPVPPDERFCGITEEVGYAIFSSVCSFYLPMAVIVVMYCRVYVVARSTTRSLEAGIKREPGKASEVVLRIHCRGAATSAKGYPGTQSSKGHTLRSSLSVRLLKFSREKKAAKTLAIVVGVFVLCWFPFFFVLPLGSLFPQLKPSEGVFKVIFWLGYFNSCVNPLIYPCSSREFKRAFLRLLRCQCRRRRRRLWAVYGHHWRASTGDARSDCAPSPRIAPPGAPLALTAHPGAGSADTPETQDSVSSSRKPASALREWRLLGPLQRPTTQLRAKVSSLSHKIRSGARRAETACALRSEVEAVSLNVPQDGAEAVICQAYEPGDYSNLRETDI
T1 sequence (P43140 whole entry): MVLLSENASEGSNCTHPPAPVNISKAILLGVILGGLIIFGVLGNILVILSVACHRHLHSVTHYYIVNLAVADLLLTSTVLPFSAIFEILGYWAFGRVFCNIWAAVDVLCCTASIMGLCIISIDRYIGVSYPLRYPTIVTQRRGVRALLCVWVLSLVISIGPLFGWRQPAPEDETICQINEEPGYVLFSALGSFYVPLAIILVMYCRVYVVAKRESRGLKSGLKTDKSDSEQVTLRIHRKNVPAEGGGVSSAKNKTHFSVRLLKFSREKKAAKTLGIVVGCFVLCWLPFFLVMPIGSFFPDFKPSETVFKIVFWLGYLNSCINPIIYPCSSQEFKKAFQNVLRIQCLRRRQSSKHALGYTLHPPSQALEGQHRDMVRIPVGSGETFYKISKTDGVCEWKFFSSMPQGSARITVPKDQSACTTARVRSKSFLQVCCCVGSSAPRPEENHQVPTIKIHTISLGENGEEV

Rattus norvegicus = species on record: Rattus norvegicus; experiment: Calcium antagonistic activity was evaluated by in vitro inhibition of [3H]nitrendipine binding on rat cerebral cortex; format: functional
[2] = target: T1, Adrenergic receptor alpha-1; experiment: Alpha-1-adrenolytic activity was assessed in vitro from the ability to inhibit norepinephrine-induced contraction of rat aorta preparation
[3] = target: T2, Adrenergic receptor alpha-2 (Rattus norvegicus, UniProt P22086+P19328+P22909); experiment: Alpha-2-adrenolytic activity was assessed from the ability to inhibit [3H]yohimbine binding to rat cerebral cortex preparation; format: tissue-based
T2 sequence (P22086 whole entry): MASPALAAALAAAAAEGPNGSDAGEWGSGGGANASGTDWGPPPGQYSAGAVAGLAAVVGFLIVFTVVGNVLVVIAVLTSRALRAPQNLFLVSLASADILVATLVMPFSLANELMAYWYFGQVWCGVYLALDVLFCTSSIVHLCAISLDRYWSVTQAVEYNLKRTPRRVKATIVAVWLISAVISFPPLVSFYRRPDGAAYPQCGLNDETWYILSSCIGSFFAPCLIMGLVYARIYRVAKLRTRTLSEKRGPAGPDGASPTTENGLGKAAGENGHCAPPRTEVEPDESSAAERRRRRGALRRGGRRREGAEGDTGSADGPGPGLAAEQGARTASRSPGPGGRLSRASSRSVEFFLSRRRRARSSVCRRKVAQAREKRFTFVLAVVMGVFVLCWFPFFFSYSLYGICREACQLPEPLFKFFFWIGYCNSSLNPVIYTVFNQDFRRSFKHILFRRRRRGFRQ
T2 sequence (P19328 whole entry): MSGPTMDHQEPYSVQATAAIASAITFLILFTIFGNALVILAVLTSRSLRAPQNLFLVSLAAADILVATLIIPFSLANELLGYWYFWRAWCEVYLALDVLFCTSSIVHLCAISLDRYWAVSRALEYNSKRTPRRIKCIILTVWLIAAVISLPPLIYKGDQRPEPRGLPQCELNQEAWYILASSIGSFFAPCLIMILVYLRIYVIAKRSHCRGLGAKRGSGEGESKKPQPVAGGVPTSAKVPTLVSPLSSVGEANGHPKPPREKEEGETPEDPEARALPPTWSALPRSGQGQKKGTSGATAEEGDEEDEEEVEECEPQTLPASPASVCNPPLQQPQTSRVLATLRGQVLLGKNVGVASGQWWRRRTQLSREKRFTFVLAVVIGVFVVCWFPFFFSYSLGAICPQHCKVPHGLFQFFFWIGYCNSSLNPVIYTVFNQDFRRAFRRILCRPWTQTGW
T2 sequence (P22909 whole entry): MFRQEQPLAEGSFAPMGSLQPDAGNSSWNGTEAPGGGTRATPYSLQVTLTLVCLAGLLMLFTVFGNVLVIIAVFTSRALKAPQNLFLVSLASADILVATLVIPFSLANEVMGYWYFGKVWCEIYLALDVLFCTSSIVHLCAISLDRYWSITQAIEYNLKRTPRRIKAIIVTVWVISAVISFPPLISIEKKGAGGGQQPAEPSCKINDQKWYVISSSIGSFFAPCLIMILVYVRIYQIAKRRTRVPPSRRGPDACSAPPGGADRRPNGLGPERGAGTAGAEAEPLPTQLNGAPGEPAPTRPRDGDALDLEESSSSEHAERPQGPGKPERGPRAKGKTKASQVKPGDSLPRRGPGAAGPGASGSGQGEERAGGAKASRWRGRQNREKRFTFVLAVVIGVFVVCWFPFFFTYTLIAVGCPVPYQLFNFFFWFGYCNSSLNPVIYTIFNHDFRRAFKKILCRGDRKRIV

[4] = Rattus norvegicus, Cerebral cortex, 90 min

Row | SMILES | IC50 [1] | IC50 (Rattus norvegicus; [4]) | IC50 [2] | IC50 (Rattus norvegicus) | IC50 [3]
1 | CO/C(O)=C1\C(C)=NC(C)=C(C(=O)OCCN2CCC(n3c(O)nc4ccccc43)CC2)C1c1cccc([N+](=O)[O-])c1 (stereo not drawn) | 41 nM | 0.6 nM | 0.00001 M |  | 
2 | CO/C(O)=C1\C(C)=NC(C)=C(C(=O)OC(C)CN(C)CC2COc3ccccc3O2)C1c1cccc([N+](=O)[O-])c1.Cl (stereo not drawn) | 1000 nM | 0.05 nM | >> 0.0001 M |  | 
3 | CO/C(O)=C1\C(C)=NC(C)=C(C(=O)OCCN(C)CC2COc3ccccc3O2)C1c1ccccc1[N+](=O)[O-] (stereo not drawn) | 300 nM | 0.07 nM | > 0.00001 M |  | 
4 | CO/C(O)=C1\C(C)=NC(C)=C(C(=O)OCCN(C)C(C)COc2ccccc2)C1c1cccc([N+](=O)[O-])c1.Cl (stereo not drawn) | 380 nM | 0.073 nM | 0.00007 M |  | 
5 | COC(=O)C1=C(C)NC(C)=C(C(=O)OCCN(C)C[C@H]2COc3ccccc3O2)[C@@H]1c1cccc([N+](=O)[O-])c1.Cl (stereo in doubt; 6a) | 2400 nM |  | 0.00001 M | 0.018 nM | 
6 | CO/C(O)=C1\C(C)=NC(C)=C(C(=O)OCCN(C)CC2COc3ccccc3O2)C1c1cccc([N+](=O)[O-])c1.Cl (stereo not drawn) | 500 nM | 0.1 nM | 0.00004 M |  | 
7 | CC1=NC(C)=C(C(=O)OC(C)CN(C)CC2COc3ccccc3O2)C(c2cccc([N+](=O)[O-])c2)/C1=C(\O)OC(C)C.Cl (stereo not drawn) | 3900 nM |  | >> 0.00003 M | 3.4 nM | 2 µM
8 | COC(=O)C1=C(C)NC(C)=C(C(=O)OCCN(C)C[C@H]2COc3ccccc3O2)[C@@H]1c1cccc([N+](=O)[O-])c1.Cl (stereo in doubt; 6b) | 2300 nM |  | > 0.00003 M | 2.8 nM | 
9 | CO/C(O)=C1\C(C)=NC(C)=C(C(=O)OCCN(C)C(c2ccccc2)C2CCCCC2)C1c1cccc([N+](=O)[O-])c1.Cl (stereo not drawn) | 75000 nM | 3.8 nM | > 0.0001 M |  | 
